These are literature values, as cited in patent US8673347B2 (Creabilis Therapeutics S.p.A., priority 2005, dated 2014).

For one data set, the target named is TrkA (Homo sapiens, UniProt P04629). Particulars: cited from earlier work.
A further data set has as its target MLK3 (Homo sapiens, UniProt Q16584). The settings on record: cited from earlier work.

TrkA, sequence (P04629 33-796, species assumed): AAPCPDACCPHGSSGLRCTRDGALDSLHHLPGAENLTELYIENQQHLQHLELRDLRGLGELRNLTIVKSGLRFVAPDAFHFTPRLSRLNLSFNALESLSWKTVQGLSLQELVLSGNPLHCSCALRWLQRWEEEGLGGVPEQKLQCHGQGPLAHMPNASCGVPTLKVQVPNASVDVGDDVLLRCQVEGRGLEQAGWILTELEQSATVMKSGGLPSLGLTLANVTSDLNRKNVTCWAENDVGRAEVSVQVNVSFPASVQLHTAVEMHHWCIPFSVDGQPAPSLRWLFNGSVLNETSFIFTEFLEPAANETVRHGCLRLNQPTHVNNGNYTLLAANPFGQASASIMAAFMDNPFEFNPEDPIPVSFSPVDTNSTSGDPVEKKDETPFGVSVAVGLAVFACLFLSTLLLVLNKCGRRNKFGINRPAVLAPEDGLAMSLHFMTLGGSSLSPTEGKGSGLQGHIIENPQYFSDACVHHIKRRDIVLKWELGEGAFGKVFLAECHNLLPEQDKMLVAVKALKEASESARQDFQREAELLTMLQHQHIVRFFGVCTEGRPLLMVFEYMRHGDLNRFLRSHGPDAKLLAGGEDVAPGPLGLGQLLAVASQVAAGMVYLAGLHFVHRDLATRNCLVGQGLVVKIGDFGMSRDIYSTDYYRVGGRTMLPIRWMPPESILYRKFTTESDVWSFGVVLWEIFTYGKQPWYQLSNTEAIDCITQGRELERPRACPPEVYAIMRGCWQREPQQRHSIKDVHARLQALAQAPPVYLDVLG
MLK3, sequence (Q16584 whole entry, species assumed): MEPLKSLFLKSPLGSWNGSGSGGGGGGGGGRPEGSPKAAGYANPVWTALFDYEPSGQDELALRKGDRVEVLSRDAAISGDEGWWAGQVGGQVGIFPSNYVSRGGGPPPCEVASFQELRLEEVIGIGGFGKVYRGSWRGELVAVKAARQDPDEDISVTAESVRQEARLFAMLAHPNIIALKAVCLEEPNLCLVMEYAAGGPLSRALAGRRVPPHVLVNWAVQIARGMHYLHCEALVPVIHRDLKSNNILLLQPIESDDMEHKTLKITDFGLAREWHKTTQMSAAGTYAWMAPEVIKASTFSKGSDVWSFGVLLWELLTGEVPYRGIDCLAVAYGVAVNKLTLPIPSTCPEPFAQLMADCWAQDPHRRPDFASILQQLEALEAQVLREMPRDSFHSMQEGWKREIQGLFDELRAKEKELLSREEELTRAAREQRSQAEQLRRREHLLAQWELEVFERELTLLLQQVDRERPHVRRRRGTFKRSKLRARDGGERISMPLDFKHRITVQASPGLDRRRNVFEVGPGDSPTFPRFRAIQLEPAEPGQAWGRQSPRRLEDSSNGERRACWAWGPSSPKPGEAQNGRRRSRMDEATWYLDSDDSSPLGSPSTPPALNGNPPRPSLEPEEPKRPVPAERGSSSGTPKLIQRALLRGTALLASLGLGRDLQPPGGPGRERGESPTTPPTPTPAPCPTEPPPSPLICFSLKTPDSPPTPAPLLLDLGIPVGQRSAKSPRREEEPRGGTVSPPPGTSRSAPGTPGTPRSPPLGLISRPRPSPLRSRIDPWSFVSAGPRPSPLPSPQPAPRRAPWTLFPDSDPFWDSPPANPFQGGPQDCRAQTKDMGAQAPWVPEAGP

`CCSCc1ccc2c(c1)c1c3c(c4c5cc(CSCC)ccc5n5c4c1n2[C@H]1C[C@](O)(C(=O)OC)[C@]5(C)O1)CNC3=O` [CEP1347]: the TrkA inhibition entry on TrkA is “does not inhibit TrkA”. The “inhibition of MAPKKKs, including MLK3” value at MLK3 is reported as “directly inhibit”.
